The values that follow come from patent US7781436B2 (Hoffmann-La Roche Inc., priority 2005, dated 2010).

A word on the pKi: it is the Ki on a negative log10 scale, so that one unit is a factor of ten.

Each structure is given as a SMILES string. pKi: −log10 of the molar value.

The first test deals with T1, human V1a receptor (Homo sapiens, UniProt P37288).
T1 construct: expressed in transfected cells; host or cells: HEK293 cells, transiently transfected; membranes prepared
T1 sequence (P37288 whole entry): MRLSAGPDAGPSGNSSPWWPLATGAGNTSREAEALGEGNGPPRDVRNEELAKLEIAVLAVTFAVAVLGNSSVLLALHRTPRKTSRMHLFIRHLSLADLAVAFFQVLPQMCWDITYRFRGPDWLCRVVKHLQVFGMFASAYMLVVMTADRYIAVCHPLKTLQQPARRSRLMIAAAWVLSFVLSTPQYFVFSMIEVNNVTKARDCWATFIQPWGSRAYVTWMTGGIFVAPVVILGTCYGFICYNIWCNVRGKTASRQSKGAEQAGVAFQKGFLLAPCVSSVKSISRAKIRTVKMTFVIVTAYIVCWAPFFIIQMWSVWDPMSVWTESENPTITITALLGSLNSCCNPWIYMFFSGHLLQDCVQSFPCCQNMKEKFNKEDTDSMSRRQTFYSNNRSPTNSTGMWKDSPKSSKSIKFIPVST
In words: human V1a receptor binding (3H-Vasopressin SPA, membranes of transfected HEK293 cells).
Details: not given
The protocol:
The human V1a receptor was cloned by RT-PCR from total human liver RNA. The coding sequence was subcloned in an expression vector after sequencing to confirm the identity of the amplified sequence. […] Cell membranes were prepared from HEK293 cells transiently transfected with the expression vector and grown in 20 liter fermenters with the following protocol.
50 g of cells are resuspended in 30 ml freshly prepared ice cold Lysis buffer (50 mM HEPES, 1 mM EDTA, 10 mM MgCl2 adjusted to pH=7.4+ complete cocktail of protease inhibitor (Roche Diagnostics)). Homogenized with Polytron for 1 min and sonicated on ice for 2×2 minutes at 80% intensity (Vibracell sonicator). The preparation is centrifuged 20 min at 500 g at 4° C., the pellet is discarded and the supernatant centrifuged 1 hour at 43,000 g at 4° C. (19'000 rpm). The pellet is resuspended in 12.5 ml Lysis buffer+12.5 ml Sucrose 20% and homogenized using a Polytron for 1-2 min. The protein concentration is determined by the Bradford method, and aliquots are stored at −80° C. until use. For binding studies 60 mg Yttrium silicate SPA beads (Amersham) are mixed with an aliquot of membrane in binding buffer (50 mM Tris, 120 mM NaCl, 5 mM KCl, 2 mM CaCl2, 10 mM MgCl2) for 15 minutes with mixing. 50 ul of bead/membrane mixture is then added to each well of a 96 well plate, followed by 50 ul of 4 nM 3H-Vasopressin (American Radiolabeled Chemicals). For total binding measurement 100 ul of binding buffer are added to the respective wells, for non-specific binding 100 ul of […] cold vasopressin and for compound testing 100 ul of a serial dilution of each compound in 2% DMSO. The plate is incubated 1 h at room temperature, centrifuged 1 min at 1000 g and counted on a Packard Top-Count. Non-specific binding counts are subtracted from each well, and data is normalized to the maximum specific binding set at 100%. To calculate an IC 50 the curve is fitted using a non-linear regression model (XLfit) and the Ki is calculated using the Cheng-Prussoff equation.
The compound `CN(C)CCn1cc(C(=O)N2CCC(c3cccc4c3OCC4)CC2)c2ccc(Cl)cc21` [Example 87, [6-Chloro-1-(2-dimethylamino-ethyl)-1H-indol-3-yl]-[4-(2,3-dihydro-benzofuran-7-yl)-piperidin-1-yl]-methanone] gave a pKi of 8.40.
On the same count and under the same terms, with `COc1ccccc1C1(C#N)CCN(C(=O)c2cn(CC(=O)N(C)C)c3cc(Cl)ccc23)CC1` [Example 60, 2-{6-Chloro-3-[4-cyano-4-(2-methoxy-phenyl)-piperidine-1-carbonyl]-indol-1-yl}-N,N-dimethyl-acetamide] the figure was 8.10.
Still for that read-out and setting: with `COc1ccccc1C1CCN(C(=O)c2cn(Cc3cc(F)cc(F)c3)c3cc(Cl)ccc23)CC1` [Example 56, [6-Chloro-1-(3,5-difluoro-benzyl)-1H-indol-3-yl]-[4-(2-methoxy-phenyl)-piperidin-1-yl]-methanone] the figure was 8.70.
Still for that read-out and setting: with `CC(=O)N(C)CCn1cc(C(=O)N2CCN(c3ccccc3F)CC2)c2ccc(Cl)cc21` [Example 219, N-(2-{6-Chloro-3-[4-(2-fluoro-phenyl)-piperazine-1-carbonyl]-indol-1-yl}-ethyl)-N-methyl-acetamide] the figure was 7.82; with `CN(C)C(=O)Cn1cc(C(=O)N2CCC(c3ccccc3OC(F)(F)F)CC2)c2ccc(Cl)cc21` [Example 95, 2-{6-Chloro-3-[4-(2-trifluoromethoxy-phenyl)-piperidine-1-carbonyl]-indol-1-yl}-N,N-dimethyl-acetamide], 7.89.

The test is the same for the next values; noted with them: displacement of 4 nM 3H-Vasopressin, HEK293 cell membranes, Ki by Cheng-Prussoff from IC50; read-out: Ki.
Regarding `CNCCn1cc(C(=O)N2CCC(c3cccc4c3OCC4)CC2)c2ccc(Cl)cc21` [Example 107, [6-Chloro-1-(2-methylamino-ethyl)-1H-indol-3-yl]-[4-(2,3-dihydro-benzofuran-7-yl)-piperidin-1-yl]-methanone], the pKi is 7.92.
For the compound `COc1ccccc1C1CCN(C(=O)c2cn(CC(=O)N(C)C)c3cc(Cl)ccc23)CC1` [Example 57, 2-{6-Chloro-3-[4-(2-methoxy-phenyl)-piperidine-1-carbonyl]-indol-1-yl}-N,N-dimethyl-acetamide], the pKi was 8.70.
On the same count and under the same terms, with `CNC(=O)Cn1cc(C(=O)N2CCC(c3ccccc3OC)CC2)c2ccc(Cl)cc21` [Example 106, 2-{6-Chloro-3-[4-(2-methoxy-phenyl)-piperidine-1-carbonyl]-indol-1-yl}-N-methyl-acetamide] the figure was 8.30; with `NC(=O)Cn1cc(C(=O)N2CCN(c3ccccc3F)CC2)c2ccc(Cl)cc21` [Example 175, 2-{6-Chloro-3-[4-(2-fluoro-phenyl)-piperazine-1-carbonyl]-indol-1-yl}-acetamide], 7.49.
Still for that read-out and setting: with `CN(C)C(=O)Cn1cc(C(=O)N2CCC(c3ccccc3C(F)(F)F)CC2)c2ccc(Cl)cc21` [Example 102, 2-{6-Chloro-3-[4-(2-trifluoromethyl-phenyl)-piperidine-1-carbonyl]-indol-1-yl}-N,N-dimethyl-acetamide] the figure was 8.15; with `COc1cccc(OC)c1C1CCN(C(=O)c2cn(CCN(C)C)c3cc(Cl)ccc23)CC1` [Example 52, [6-Chloro-1-(2-dimethylamino-ethyl)-1H-indol-3-yl]-[4-(2,6-dimethoxy-phenyl)-piperidin-1-yl]-methanone], 8.40; with `CN(C)C(=O)Cn1cc(C(=O)N2CCC(c3ccccc3F)CC2)c2ccc(Cl)cc21` [Example 114, 2-{6-Chloro-3-[4-(2-fluoro-phenyl)-piperidine-1-carbonyl]-indol-1-yl}-N,N-dimethyl-acetamide], 8.52.
On to `CN1CCN(C(=O)Cn2cc(C(=O)N3CCC(c4ccccc4C(F)(F)F)CC3)c3ccc(Cl)cc32)CC1` [Example 97, 2-{6-Chloro-3-[4-(2-trifluoromethyl-phenyl)-piperidine-1-carbonyl]-indol-1-yl}-1-(4-methyl-piperazin-1-yl)-ethanone], for which the negative logarithm of the Ki (pKi) was 8.22.
The same measure, in the same setting: with `CCOc1ccccc1N1CCN(C(=O)c2cn(CC(=O)N(C)C)c3cc(Cl)ccc23)CC1` [Example 152, 2-{6-Chloro-3-[4-(2-ethoxy-phenyl)-piperazine-1-carbonyl]-indol-1-yl}-N,N-dimethyl-acetamide] the figure was 7.85.
